Results on 13 compounds are retold here after article PMC11209699 (ACS Omega, 2024).

In series [1] the target is MCL-1 (Homo sapiens, UniProt Q07820). Briefly: fluorescence polarization. The following applies: for binding to MCL-1 (in words): tested up to 100 μM. In general terms: Fluorescence polarisation rises when a labelled molecule tumbles more slowly, as on binding a larger partner.
Series [2] relates to MV-4–11 xenograft mice. The experiment in a line: in vivo antitumor study, MV-4–11 xenograft mouse model. The following applies: for effect on body weight after 20 days (in words): 90% confidence level vs vehicle.
Series [3] concerns H929 cells. The experiment in a line: CCK-8 cell viability. The series is classed as cell-based. Particulars: Homo sapiens, NCI-H929, 48 h, read-out: cytotoxicity (IC50) H929.
Series [4] concerns MV-4–11 cells. Briefly: annexin V and PI double-staining flow cytometry. The format is cell-based. Particulars: 24 h. On the technique in general: Flow cytometry measures light scatter and fluorescence of single cells or particles in a stream.
Series [5] concerns MV-4–11 cells. Briefly: CCK-8 cell viability. The series is classed as cell-based. Particulars: Homo sapiens, MV4-11, 48 h, read-out: cytotoxicity (IC50) MV-4–11.
The nature of series [6]: CCK-8 cell viability. The series is classed as cell-based. Particulars: human, HEK293T cells.
The test system of series [7] is HeLa cells. The experiment in a line: CCK-8 cell viability. Particulars: Homo sapiens, 48 h, read-out: cytotoxicity (IC50) HeLa. The series is classed as cell-based.
Series [8] relates to HL-60 cells. The experiment in a line: CCK-8 cell viability. The series is classed as cell-based. Particulars: Homo sapiens, HL-60, 48 h, read-out: cytotoxicity (IC50) HL-60.
Series [9] relates to RS4;11 cells. Briefly: CCK-8 cell viability. The format is cell-based. Particulars: Homo sapiens, RS4-11, 48 h, read-out: cytotoxicity (IC50) RS4;11.
In series [10] the test system is MV-4–11 cells. The experiment in a line: kinetics study in cells. The format is in vitro ADME. Particulars: GQN-B37-Me given to MV-4–11 cells at 40 μM, monitored over 8 h.
The target in series [11] is BCL-2 (Homo sapiens, UniProt P10415). The experiment in a line: fluorescence polarization. Particulars: FP assay.
Series [12] has as its target BCL-xL (Homo sapiens, UniProt Q07817). The experiment in a line: fluorescence polarization. Particulars: FP assay, tested up to 100 μM.
The target in series [13] is MCL-1/BIM interaction in H929 cells (Homo sapiens, UniProt Q07820). Briefly: coimmunoprecipitation. The format is cell-based. The following applies: 10 μM, 10 h.
A short description of series [14]: stability in GSH. The format is in vitro ADME. The following applies: exposure to GSH for up to 2 h.
Series [15] can be described thus: stability in liver microsomes. The series is classed as in vitro ADME. Particulars: rat, pooled rat liver microsomes. On the technique in general: Microsomes from liver hold many membrane-bound enzymes, among them those of drug oxidation.
The nature of series [16]: stability in liver microsomes. The format is in vitro ADME. Particulars: dog, pooled dog liver microsomes.
The nature of series [17]: stability in liver microsomes. The format is in vitro ADME. The following applies: human.
Series [18] concerns PARP and caspase-3 in H929 cells. The experiment in a line: Western blot of PARP and caspase-3 cleavage. The format is cell-based. The following applies: 5 to 40 μM, 24 h.
The test system of series [19] is MV-4–11 xenograft mice. The series is classed as in vivo, mouse. Particulars: after 20 days treatment.
The nature of series [20]: stability in liver microsomes. The format is in vitro ADME. The following applies: monkey, pooled monkey liver microsomes.

“And” between values parts separate entries of the source, which are not always exact repeats. Identical values can stand only once. “Also recorded” adds a separate entry of the source.

Chain of BCL-2 (P10415 1-207): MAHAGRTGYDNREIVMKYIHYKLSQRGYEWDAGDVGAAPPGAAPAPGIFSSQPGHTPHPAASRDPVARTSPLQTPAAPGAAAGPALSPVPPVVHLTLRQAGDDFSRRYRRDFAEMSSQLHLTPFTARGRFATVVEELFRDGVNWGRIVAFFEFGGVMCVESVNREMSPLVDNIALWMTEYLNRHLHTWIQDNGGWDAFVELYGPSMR
Chain of MCL-1 (Q07820 152-327): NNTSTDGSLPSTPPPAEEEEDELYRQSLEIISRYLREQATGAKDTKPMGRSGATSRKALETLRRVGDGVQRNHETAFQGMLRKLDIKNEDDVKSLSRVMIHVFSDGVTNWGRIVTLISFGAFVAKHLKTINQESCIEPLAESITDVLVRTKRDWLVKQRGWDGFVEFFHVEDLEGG
Chain of BCL-xL (Q07817 45-233): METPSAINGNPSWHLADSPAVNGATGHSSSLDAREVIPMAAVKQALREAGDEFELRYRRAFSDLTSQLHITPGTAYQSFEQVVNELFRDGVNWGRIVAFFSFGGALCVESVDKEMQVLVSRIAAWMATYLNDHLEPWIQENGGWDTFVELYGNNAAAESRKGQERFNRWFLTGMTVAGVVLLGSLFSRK
Chain of MCL-1/BIM interaction in H929 cells (Q07820 whole entry): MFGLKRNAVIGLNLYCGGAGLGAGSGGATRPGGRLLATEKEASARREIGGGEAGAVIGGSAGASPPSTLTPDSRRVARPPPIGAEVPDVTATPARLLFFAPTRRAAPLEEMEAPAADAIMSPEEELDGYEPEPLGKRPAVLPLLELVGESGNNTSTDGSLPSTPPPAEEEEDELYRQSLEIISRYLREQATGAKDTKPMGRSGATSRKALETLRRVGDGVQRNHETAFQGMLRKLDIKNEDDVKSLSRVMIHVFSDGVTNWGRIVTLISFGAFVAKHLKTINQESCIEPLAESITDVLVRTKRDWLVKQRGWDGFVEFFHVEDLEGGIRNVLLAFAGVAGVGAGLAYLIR

Take `CC1(C)CCC(CN2CCN(c3ccc(C(=O)NS(=O)(=O)c4ccc(NCC5CCOCC5)c([N+](=O)[O-])c4)c(Oc4cnc5[nH]ccc5c4)c3)CC2)=C(c2ccc(Cl)cc2)C1` [ABT-199, reference compound]: the “binding to MCL-1 (in words)” value in series [1] (FP assay) is “no obvious binding”.

As usually defined, the IC50 is the concentration that inhibits the measured activity by half. With `Cc1c2c(nn1C)CSCc1cc(n(C)n1)CSc1cc(c3ccccc3c1)OCCCc1c(C(=O)O)n(C)c3c-2c(Cl)ccc13` [AZD5991, reference compound], the “tumor growth inhibition on day 20” value in series [2] (10 mg/kg i.p. every 2 days for 20 days) worked out at 56%. Moreover, the “effect on body weight after 20 days (in words)” value in series [2] (10 mg/kg i.p. every 2 days) is reported as “caused significant body weight loss”. Besides, the IC50 in [3] is 0.05 ± 0.01 µM; in [5], under 0.01 µM. In series [4] (1 μM, MV-4–11 cells), the “cells in quadrant Q3-2 (late apoptosis, annexin V (+) and PI (+))” value is given as about 75%. In series [6], the IC50 at 48 h is over 20 µM.

Regarding `O=C(/C=C/c1cn(-c2ccccc2)nc1-c1ccc2ccccc2c1)N[C@@H](Cc1c[nH]c2ccccc12)C(=O)O` [GQN-B18-E, (E)-(3-(3-(Naphthalen-2-yl)-1-phenyl-1H-pyrazol-4-yl)acryloyl)-L-tryptophan], the IC50 in [7] is over 50 µM; in [3] it was over 50 µM; in series [8], over 20 µM; in [9], over 20 µM; in [5] it was over 50 µM. The IC50 at 48 h in series [6] was over 20 µM.

In the case of `COC(=O)[C@H](Cc1c[nH]c2ccccc12)NC(=O)/C=C/c1cn(-c2ccccc2)nc1-c1ccc2ccccc2c1` [GQN-B18-Me, Methyl-(E)-(3-(3-(naphthalen-2-yl)-1-phenyl-1H-pyrazol-4-yl)acryloyl)-L-tryptophanate], the IC50 in series [7] was over 20 µM; in series [3], 7.97 ± 1.01 µM; in [8] it was over 20 µM; in [9], over 20 µM; in series [5] it was over 20 µM. Further, in series [1] (FP assay), the “binding to MCL-1 (in words)” value is recorded as “totally abolished; also recorded: complete loss of binding”. Besides, the IC50 at 48 h in series [6] is over 20 µM.

For the compound `O=C(/C=C/c1cn(-c2cccc(Cl)c2)nc1-c1ccc(C2CCCCC2)cc1)N[C@@H](Cc1c[nH]c2ccccc12)C(=O)O` [GQN-B33-E, (E)-(3-(1-(3-Chlorophenyl)-3-(4-cyclohexylphenyl)-1H-pyrazol-4-yl)acryloyl)-L-tryptophan], the IC50 in [7] is over 50 µM; in series [3] it was over 50 µM; in series [8] it was over 50 µM; in series [9], over 20 µM; in [5], over 20 µM. The compound further registered an IC50 at 48 h in [6] of over 20 µM.

As for `COC(=O)[C@H](Cc1c[nH]c2ccccc12)NC(=O)/C=C/c1cn(-c2cccc(Cl)c2)nc1-c1ccc(C2CCCCC2)cc1` [GQN-B33-Me, Methyl-(E)-(3-(1-(3-chlorophenyl)-3-(4-cyclohexylphenyl)-1H-pyrazol-4-yl)acryloyl)-L-tryptophanate], the IC50 in series [7] is over 50 µM; in [3], 4.64 ± 0.01 µM; in series [8] it was over 50 µM; in series [9], over 20 µM; in series [5] it was over 20 µM. In series [6], this compound came in with an IC50 at 48 h of over 20 µM.

Consider `Nc1ccc(-c2nn(-c3cccc(Cl)c3)cc2/C=C/C(=O)N[C@@H](Cc2c[nH]c3ccccc23)C(=O)O)cc1` [GQN-B35-E, (E)-(3-(3-(4-Aminophenyl)-1-(3-chlorophenyl)-1H-pyrazol-4-yl)acryloyl)-L-tryptophan], for which the IC50 in series [7], in series [3], in [8], in [9] and in series [5] was over 50 µM each time. For the same compound, the IC50 at 48 h in series [6] was over 20 µM.

On to `COC(=O)[C@H](Cc1c[nH]c2ccccc12)NC(=O)/C=C/c1cn(-c2cccc(Cl)c2)nc1-c1ccc(N)cc1` [GQN-B35-Me, Methyl-(E)-(3-(3-(4-aminophenyl)-1-(3-chlorophenyl)-1H-pyrazol-4-yl)acryloyl)-L-tryptophanate], for which the IC50 is over 50 µM in [7]; 3.89 ± 0.07 µM in series [3]; over 20 µM in series [8]; over 20 µM in [9]; 20.52 ± 0.12 µM in series [5]. For the same compound, in series [6], the IC50 at 48 h was over 20 µM.

For `O=C(/C=C/c1cn(-c2cccc(Cl)c2)nc1-c1ccc(N2CCOCC2)cc1)N[C@@H](Cc1c[nH]c2ccccc12)C(=O)O` [GQN-B36-E, (E)-(3-(1-(3-Chlorophenyl)-3-(4-morpholinophenyl)-1H-pyrazol-4-yl)acryloyl)-L-tryptophan], the concentration for half-maximal inhibition (IC50) in [7], in [3], in series [8], in series [9] and in series [5] was over 50 µM in each case. The compound also gave an IC50 at 48 h in series [6] of over 20 µM.

As for `COC(=O)[C@H](Cc1c[nH]c2ccccc12)NC(=O)/C=C/c1cn(-c2cccc(Cl)c2)nc1-c1ccc(N2CCOCC2)cc1` [GQN-B36-Me, Methyl-(E)-(3-(1-(3-chlorophenyl)-3-(4-morpholinophenyl)-1H-pyrazol-4-yl)acryloyl)-L-tryptophanate], the IC50 in [7] is over 50 µM; in series [3], over 20 µM; in series [8], over 20 µM; in [9], over 20 µM; in [5], over 20 µM. Besides, the IC50 at 48 h in [6] was over 20 µM.

As for `O=C(/C=C/c1cn(-c2cccc(Cl)c2)nc1-c1ccc(O)cc1)N[C@@H](Cc1c[nH]c2ccccc12)C(=O)O` [GQN-B37-E, (E)-(3-(1-(3-Chlorophenyl)-3-(4-hydroxyphenyl)-1H-pyrazol-4-yl)acryloyl)-L-tryptophan], the IC50 in series [7], in [3], in series [8], in series [9] and in [5] was over 50 µM each time. The “time at which intracellular GQN-B37-E reached a peak” value in series [10] is 3 h. Also, in [11] (tested up to 100 μM), the “binding to BCL-2 (in words)” value was “without apparent binding”. The “binding to BCL-XL (in words)” value in series [12] was “without apparent binding”. For the same compound, the “ligand efficiency (LE)” value in series [1] (binding energy divided by the number of heavy atoms, MCL-1) is 0.22 kcal/mol. The IC50 at 48 h in series [6] was over 20 µM.

As usually defined, the half-life is how long it takes for the measured level to halve. As to `COC(=O)[C@H](Cc1c[nH]c2ccccc12)NC(=O)/C=C/c1cn(-c2cccc(Cl)c2)nc1-c1ccc(O)cc1` [GQN-B37-Me, Methyl-(E)-(3-(1-(3-chlorophenyl)-3-(4-hydroxyphenyl)-1H-pyrazol-4-yl)acryloyl)-L-tryptophanate], the “tumor growth inhibition on day 20” value in [2] (12.5 mg/kg i.p. every 2 days for 20 days) was determined as 30%; in series [2] (50 mg/kg i.p. every 2 days for 20 days), 43%. The “effect on body weight after 20 days (in words)” value in series [2] (12.5 mg/kg i.p. every 2 days) is recorded as “did not cause significant body weight loss”; in series [2] (50 mg/kg i.p. every 2 days), “affected body weight”. The IC50 in series [7] was over 20 µM; in series [3] it was 3.71 ± 0.33 µM; in series [8] it was over 20 µM; in [9], 15.9 ± 0.98 µM; in [5] it was 5.57 ± 0.09 µM. For the same compound, in series [13], the “disruption of the MCL-1/BIM interaction” value is listed as “disrupts the MCL-1/BIM interaction considerably”. In addition, the “stability following incubation with GSH (in words)” value in [14] is given as “basically intact”. Besides, the half-life at 1.4 μM in [15] was 1.92 h; in series [16], 1.93 h; in [17], 0.77 h; in series [20], 0.58 h. The “induction of late apoptosis (in words)” value in series [4] (doses ranging from 1 to 40 μM) is on record as “induced late apoptosis in a clear dose-dependent manner”. Moreover, the “cleavage of full-length PARP (116 to 89 kDa)” value in series [18] is “dose-dependent cleavage”. The “lesions in liver, kidney and heart (HE staining)” value in [19] (12.5 and 50 mg/kg) is listed as “no evidence of lesions”. Moreover, the “necrosis of tumor tissues (HE staining)” value in series [19] (12.5 and 50 mg/kg) is on record as “dose-dependent necrosis of tumor tissues”. Besides, the “level of proliferation in tumor tissues (Ki-67)” value in series [19] (compared to the blank group) is “significantly reduced”. Further, the “binding to MCL-1 (in words)” value in series [1] (FP assay) is reported as “complete loss of binding”. In addition, the IC50 at 48 h in [6] was over 20 µM.

The term Ki denotes the equilibrium dissociation constant of an inhibitor or competing ligand from its target. For the compound `O=C(/C=C\c1cn(-c2ccccc2)nc1-c1ccc2ccccc2c1)Nc1ccc(C(=O)O)cc1` [LC126, (Z)-4-(3-(3-(Naphthalen-2-yl)-1-phenyl-1H-pyrazol-4-yl)acrylamido)benzoic Acid], the Ki in series [11] (Ki for BCL-2 (text and Figure 2)) was 10 µM and ~10 µM; in series [1] (Ki for MCL-1 (text and Figure 2), FP assay) it was 13 µM and ~10 µM.
